The supplement of paper PMC10307832

What was measured:
Experiment in all cases: relative viability (nuclei count vs DMSO), 5 days (fraction); higher = more cells survive
COR-L23 = tested on: COR-L23
Method in brief: (§1)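 Dosing by pin tool came one day after lung cancer cell lines were seeded in 1536-well plates, using either one drug or a fixed anchor-drug dose plus five library-drug doses (not always all listed) in √10 steps. After 5 days, nuclei were counted on 4× images. Relative viability is treated-well nuclei count divided by vehicle-well nuclei count, and values are medians of duplicate plates.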

ChaGo-K-1 = tested on: ChaGo-K-1
Method in brief: as §1

EPLC-272H = tested on: EPLC-272H
Method in brief: as §1

H3255 = tested on: H3255
Method in brief: as §1

HARA = tested on: HARA
Method in brief: as §1

HOP-62 = tested on: HOP-62
Method in brief: as §1

LCLC-97TM1 = tested on: LCLC-97TM1
Method in brief: as §1

LXF-289 = tested on: LXF-289
Method in brief: as §1

NCI-H1395 = tested on: NCI-H1395
Method in brief: as §1

NCI-H1437 = tested on: NCI-H1437
Method in brief: as §1

NCI-H1650 = tested on: NCI-H1650
Method in brief: as §1

`Cc1cn(-c2cc(NC(=O)c3ccc(C)c(Nc4nccc(-c5cccnc5)n4)c3)cc(C(F)(F)F)c2)cn1` [Nilotinib] + CCNC(=O)c1noc(-c2cc(C(C)C)c(O)cc2O)c1-c1ccc(CN2CCOCC2)cc1 [Luminespib] (partner 0.01 µM) showed a relative viability (COR-L23; first compound 0.001 µM) of 0.478, a relative viability (COR-L23; first compound 0.003162 µM) of 0.557 and a relative viability (COR-L23; first compound 0.01 µM) of 0.883. For the same compound, the relative viability (COR-L23; first compound 0.03162 µM) was 0.507, the relative viability (COR-L23; first compound 0.1 µM) was 0.535 and the relative viability (ChaGo-K-1; first compound 0.001 µM) was 0.416. For the same compound, the relative viability (ChaGo-K-1; first compound 0.003162 µM) was 0.48, the relative viability (ChaGo-K-1; first compound 0.01 µM) was 1.01 and the relative viability (ChaGo-K-1; first compound 0.03162 µM) was 0.531. The relative viability (ChaGo-K-1; first compound 0.1 µM) was 0.666, the relative viability (EPLC-272H; first compound 0.001 µM) was 0.134 and the relative viability (EPLC-272H; first compound 0.003162 µM) was 0.205. It also gave a relative viability (EPLC-272H; first compound 0.01 µM) of 0.277, a relative viability (EPLC-272H; first compound 0.03162 µM) of 0.265 and a relative viability (EPLC-272H; first compound 0.1 µM) of 0.175. The relative viability (H3255; first compound 0.001 µM) was 0.9, the relative viability (H3255; first compound 0.003162 µM) was 0.733 and the relative viability (H3255; first compound 0.03162 µM) was 0.922. The relative viability (H3255; first compound 0.1 µM) was 0.325, the relative viability (HARA; first compound 0.001 µM) was 0.569 and the relative viability (HARA; first compound 0.003162 µM) was 1.24. It also gave a relative viability (HARA; first compound 0.01 µM) of 1.14, a relative viability (HARA; first compound 0.03162 µM) of 0.842 and a relative viability (HARA; first compound 0.1 µM) of 0.482. For the same compound, the relative viability (HOP-62; first compound 0.001 µM) was 0.727, the relative viability (HOP-62; first compound 0.003162 µM) was 0.792 and the relative viability (HOP-62; first compound 0.01 µM) was 0.839. For the same compound, the relative viability (HOP-62; first compound 0.03162 µM) was 0.786, the relative viability (HOP-62; first compound 0.1 µM) was 0.529 and the relative viability (LCLC-97TM1; first compound 0.001 µM) was 0.795. The relative viability (LCLC-97TM1; first compound 0.003162 µM) was 0.868, the relative viability (LCLC-97TM1; first compound 0.01 µM) was 0.741 and the relative viability (LCLC-97TM1; first compound 0.03162 µM) was 0.607. It also gave a relative viability (LCLC-97TM1; first compound 0.1 µM) of 0.641, a relative viability (LXF-289; first compound 0.001 µM) of 0.655 and a relative viability (LXF-289; first compound 0.003162 µM) of 1.02. It also gave a relative viability (LXF-289; first compound 0.01 µM) of 0.988, a relative viability (LXF-289; first compound 0.03162 µM) of 0.573 and a relative viability (LXF-289; first compound 0.1 µM) of 0.649. It also gave a relative viability (NCI-H1395; first compound 0.001 µM) of 0.713, a relative viability (NCI-H1395; first compound 0.003162 µM) of 0.39 and a relative viability (NCI-H1395; first compound 0.01 µM) of 0.702. It also gave a relative viability (NCI-H1395; first compound 0.03162 µM) of 0.713, a relative viability (NCI-H1395; first compound 0.1 µM) of 0.814 and a relative viability (NCI-H1437; first compound 0.001 µM) of 1.11. It also gave a relative viability (NCI-H1437; first compound 0.003162 µM) of 1.3, a relative viability (NCI-H1437; first compound 0.01 µM) of 1.26 and a relative viability (NCI-H1437; first compound 0.03162 µM) of 0.885. It also gave a relative viability (NCI-H1437; first compound 0.1 µM) of 0.934, a relative viability (NCI-H1650; first compound 0.001 µM) of 0.208 and a relative viability (NCI-H1650; first compound 0.003162 µM) of 0.203. It also gave a relative viability (NCI-H1650; first compound 0.01 µM) of 0.197 and a relative viability (NCI-H1650; first compound 0.03162 µM) of 0.221.
